Assays:
[1] = target: HCV NS3 protease genotype 3a (3A-1) (Hepatitis C virus genotype 3a, UniProt Q81258); experiment: HCV NS3 protease time-resolved fluorescence (TRF) assay, genotype 3a; type: biochemical; details: Ki 3a
Procedure: (§1) The HCV NS3 protease inhibitory activity of the present compounds may be tested using assays known in the art. One such assay is HCV NS3 protease time-resolved fluorescence (TRF) assay as described below and in International Patent Application Publication No. WO2006/102087. Other examples of such assays are described in e.g., International Patent Application Publication No. WO2005/046712. The assay is performed in a final volume of 100 μl in assay buffer containing 50 mM HEPES, pH 7.5, 150 mM NaCl, 15% glycerol, 0.15% Triton X-100, 10 mM DTT, and 0.1% PEG 8000. NS3 protease is pre-incubated with various concentrations of inhibitors in DMSO for 30 minutes. The reaction is initiated by adding the TRF peptide substrate (final concentration 100 nM). NS3 mediated hydrolysis of the substrate is quenched after 1 hour at room temperature with 100 μl of 500 mM MES, pH 5.5. Product fluorescence is detected using either a VICTOR V2 or FUSION fluorophotometer (Perkin Elmer Life and Analytical Sciences) with excitation at 340 nm and emission at 615 nm with a 400 μs delay. Testing concentrations of different enzyme forms are selected to result in a signal to background ratio (S/B) of 10-30. IC50 values are derived using a standard four-parameter fit to the data. K; values are derived from IC50 values using the following formula, IC50=Ki(1+[S]/Km), Eqn (1), where [S] is the concentration of substrate peptide in the reaction and KM is the Michaelis constant. See Gallinari et al., 1999, Biochem. 38:5620-32; Gallinari et al., 1998, J. Virol. 72:6758-69; Taliani et al., 1996, Anal. Biochem. 240:60-67.
(§2) The HCV NS3 protease inhibitory activity was measured using the protease time-resolved fluorescence (TRF) assay as described below and in International Patent Application Publication No. WO 2006/102087. The assay was performed with HCV genotype 1b (BK) NS3 modified enzyme with a R155K mutation and genotype 3a (3A-1).
(§3) The assay was performed in a final volume of 50 μl in assay buffer containing 50 mM HEPES, pH 7.5, 150 mM NaCl, 15% glycerol, 0.15% TRITON X-100, 10 mM DTT, and 0.1% PEG 8000. NS3 and NS4A protease is pre-incubated with various concentrations of inhibitors in DMSO for 10 minutes. The reaction was initiated by adding the TRF peptide substrate (final concentration 25 nM) and NS3 mediated hydrolysis of the substrate proceeds for 6 hours at room temperature. Product fluorescence is detected using an Envision plate reader (Perkin Elmer) with excitation at 340 nm and emission at 615 nm with a 400 μs delay. Testing concentrations of the enzymes were selected to result in a signal to background ratio (S/B) of 5-20. IC50 values are derived using a standard four-parameter fit to the data.
(§4) NS3 and NS4A protease is pre-incubated with various concentrations of inhibitors in DMSO for 30 minutes. The reaction is initiated by adding the TRF peptide substrate (final concentration 100 nM). NS3 mediated hydrolysis of the substrate is quenched after 1 hour at room temperature with 100 μl of 500 mM MES, pH 5.5. Product fluorescence is detected using either a VICTOR V2 or FUSION fluorophotometer (Perkin Elmer Life and Analytical Sciences) with excitation at 340 nm and emission at 615 nm with a 400 μs delay. Testing concentrations of the enzymes are selected to result in a signal to background ratio (S/B) of 8-30. IC50 values are derived using a standard four-parameter fit to the data. Ki values are derived from IC50 values using the following formula, IC50=Ki(1+[S][…]), Eqn (1), where [S] is the concentration of substrate peptide in the reaction and KM is the Michaelis constant. See Gallinari et al., 1999, Biochem. 38:5620-32; Gallinari et al., 1998, J. Virol. 72:6758-69; and Taliani et al., 1996, Anal. Biochem. 240:60-67. ND means not determined.

[2] = target: T1, HCV genotype 1b (BK) NS3 modified enzyme with a R155K mutation (Hepatitis C virus genotype 1b, UniProt P26663, R1181K); experiment: HCV NS3 protease time-resolved fluorescence (TRF) assay, genotype 1b R155K; type: biochemical; details: Ki 1b R155K, genotype 1b (BK) NS3 R155K; single value
T1 construct: HCV genotype 1b (BK) NS3 modified enzyme
Procedure: as §1, §2, §3, §4

Structure (SMILES)	Ki [1]	Ki [2]
C=C[C@@H]1C[C@]1(NC(=O)[C@@H]1C[C@@H]2CN1C(=O)[C@H](C1CCCC1)NC(=O)O[C@@H]1CCC[C@H]1CC/C=C/Cc1c(nc3ccccc3c1OCC)O2)C(=O)NS(=O)(=O)C1CC1 [Example 1, (3aR,7S,10S,12R,21E,24aS)-7-cyclopentyl-N-{(1R,2S)-1-[(cyclopropylsulfonyl)carbamoyl]-2-ethenylcyclopropyl}-19-ethoxy-5,8-dioxo-1,2,3,3a,5,6,7,8,11,12,20,23,24,24a-tetradecahydro-10H-9,12-methanocyclopenta[18,19][1,10,3,6]dioxadiazacyclononadecino[11,12-b]quinoline-10-carboxamide]	6.1 nM	0.25 nM
CCOc1c2c(nc3ccccc13)O[C@@H]1C[C@@H](C(=O)N[C@]3(C(=O)NS(=O)(=O)C4CC4)C[C@H]3CC)N(C1)C(=O)[C@H](C1CCCC1)NC(=O)O[C@@H]1CCC[C@H]1CC/C=C/C2 [Example 2, (3aR,7S,10S,12R,21E,24aS)-7-cyclopentyl-N-{(1R,2R)-1-[(cyclopropylsulfonyl)carbamoyl]-2-ethylcyclopropyl}-19-ethoxy-5,8-dioxo-1,2,3,3a,5,6,7,8,11,12,20,23,24,24a-tetradecahydro-10H-9,12-methanocyclopenta[18,19][1,10,3,6] dioxadiazacyclononadecino[11,12-b] quinoline-10-carboxamide]	31 nM	2.7 nM
C=C[C@@H]1C[C@]1(NC(=O)[C@@H]1C[C@@H]2CN1C(=O)[C@H](C1CCCC1)NC(=O)O[C@@H]1CCC[C@H]1CC/C=C\Cc1c(nc3ccccc3c1OCC)O2)C(=O)NS(=O)(=O)C1CC1 [Example 3, (3aR,7S,10S,12R,21Z,24aS)-7-cyclopentyl-N-{(1R,2S)-1-[(cyclopropylsulfonyl)carbamoyl]-2-ethenylcyclopropyl}-19-ethoxy-5,8-dioxo-1,2,3,3a, 5,6,7,8,11,12,20,23,24,24a-tetradecahydro-10H-9,12-methanocyclopenta[18,19][1,10,3,6] dioxadiazacyclononadecino[11,12-b] quinoline-10-carboxamide]	35 nM	1.4 nM
C=C[C@@H]1C[C@]1(NC(=O)[C@@H]1C[C@@H]2CN1C(=O)[C@H](C1CCCC1)NC(=O)O[C@@H]1CCC[C@H]1CC/C=C/Cc1c(nc3ccccc3c1OC)O2)C(=O)NS(=O)(=O)C1CC1 [Example 4, (3aR,7S,10S,12R,21E,24aS)-7-cyclo pentyl-N-{(1R,2S)-1-[(cyclopropylsulfonyl)carbamoyl]-2-ethenylcyclopropyl}-19-methoxy-5,8-dioxo-1,2,3,3a,5,6,7,8,11,12,20,23,24,24a-tetradeca hydro-10H-9,12-methanocyclopenta[18,19][1,10,3,6] dioxadiazacyclononadecino[11,12-b]quinoline-10-carboxamide]	3.4 nM	0.11 nM
CC[C@@H]1C[C@]1(NC(=O)[C@@H]1C[C@@H]2CN1C(=O)[C@H](C1CCCC1)NC(=O)O[C@@H]1CCC[C@H]1CC/C=C/Cc1c(nc3ccccc3c1OC)O2)C(=O)NS(=O)(=O)C1CC1 [Example 5, (3aR,7S,10S,12R,21E,24aS)-7-cyclopentyl-N-{(1R,2R)-1-[(cyclopropylsulfonyl)carbamoyl]-2-ethylcyclopropyl}-19-methoxy-5,8-dioxo-1,2,3,3a, 5,6,7,8,11,12,20,23,24,24a-tetradecahydro-10H-9,12-methanocyclopenta[18,19][1,10,3,6] dioxadiazacyclononadecino[11,12-b]quinoline-10-carboxamide]	17 nM	0.59 nM
C=C[C@@H]1C[C@]1(NC(=O)[C@@H]1C[C@@H]2CN1C(=O)[C@H](C(C)(C)C)NC(=O)O[C@@H]1CCC[C@H]1CC/C=C/Cc1c(nc3ccccc3c1OC)O2)C(=O)NS(=O)(=O)C1CC1 [Example 6, (3aR,7S,10S,12R,21E,24aS)-7-tert-butyl-N-{(1R,2S)-1-[(cyclopropylsulfonyl)carbamoyl]-2-ethenylcyclopropyl}-19-methoxy-5,8-dioxo-1,2,3,3a,5,6,7,8,11,12,20,23,24,24a-tetradecahydro-10H-9,12-methanocyclopenta[18,19][1,10,3,6] dioxadiazacyclononadecino[11,12-b]quinoline-10-carboxamide]	1.3 nM	0.1 nM
C=C[C@@H]1C[C@]1(NC(=O)[C@@H]1C[C@@H]2CN1C(=O)[C@H](C(C)(C)C)NC(=O)O[C@@H]1CCC[C@H]1CC/C=C\Cc1c(nc3ccccc3c1OC)O2)C(=O)NS(=O)(=O)C1CC1 [Example 7, (3aR,7S,10S,12R,21Z,24aS)-7-tert-butyl-N-{(1R,2S)-1-[(cyclopropylsulfonyl)carbamoyl]-2-ethenylcyclopropyl}-19-methoxy-5,8-dioxo-1,2,3,3a,5,6,7,8,11,12,20,23,24,24a-tetradecahydro-10H-9,12-methanocyclopenta[18,19][1,10,3,6] dioxadiazacyclononadecino[11,12-b]quinoline-10-carboxamide]	17 nM	0.76 nM
C=C[C@@H]1C[C@]1(NC(=O)[C@@H]1C[C@@H]2CN1C(=O)[C@H](C1CCCC1)NC(=O)O[C@@H]1CCC[C@H]1CC/C=C/Cc1c(nc3ccccc3c1OCc1ccccc1)O2)C(=O)NS(=O)(=O)C1CC1 [Example 8, (3aR,7S,10S,12R,21E,24aS)-19-(benzyloxy)-7-cyclopentyl-N-{(1R,2S)-1-[(cyclopropylsulfonyl)carbamoyl]-2-ethenylcyclopropyl}-5,8-dioxo-1,2,3,3a,5,6,7,8,11,12,20,23,24,24a-tetradecahydro-10H-9,12-methanocyclopenta[18,19][1,10,3,6] dioxadiazacyclononadecino[11,12-b]quinoline-10-carboxamide]	51 nM	1.6 nM
C=C[C@@H]1C[C@]1(NC(=O)[C@@H]1C[C@@H]2CN1C(=O)[C@H](C1CCCC1)NC(=O)O[C@@H]1CCC[C@H]1CC/C=C/Cc1c(nc3cc(Cl)ccc3c1OC)O2)C(=O)NS(=O)(=O)C1CC1 [Example 9, (3aR,7S,10S,12R,21E,24aS)-16-chloro-7-cyclopentyl-N-{(1R,2S)-1-[(cyclopropylsulfonyl)carbamoyl]-2-ethenylcyclopropyl}-19-methoxy-5,8-dioxo-1,2,3,3a,5,6,7,8,11,12,20,23,24,24a-tetradecahydro-10H-9,12-methanocyclopenta [18,19][1,10,3,6]dioxadiazacyclononadecino [11,12-b]quinoline-10-carboxamide]	2.9 nM	0.14 nM
C=C[C@@H]1C[C@]1(NC(=O)[C@@H]1C[C@@H]2CN1C(=O)[C@H](C1CCCC1)NC(=O)O[C@@H]1CCC[C@H]1CC/C=C/Cc1c(nc3cccc(Cl)c3c1OC)O2)C(=O)NS(=O)(=O)C1CC1 [Example 10, (3aR,7S,10S,12R,21E,24aS)-18-chloro-7-cyclopentyl-N-{(1R,2S)-1-[(cyclopropylsulfonyl)carbamoyl]-2-ethenylcyclopropyl}-19-methoxy-5,8-dioxo-1,2,3,3a,5,6,7,8,11,12,20,23,24,24a-tetradecahydro-10H-9,12-methanocyclopenta [18,19][1,10,3,6]dioxadiazacyclononadecino [11,12-b]quinoline-10-carboxamide]	11 nM	0.19 nM
